Data as given in US6833373B1, “Method of using an integrin antagonist and one or more antineoplastic agents as a combination therapy in the treatment of neoplasia” (G.D. Searle & Co., priority 1998, dated 2004).

What was measured:
lung tumors = test: Implanted tumor cells, lung tumors in mice, compound I7 with or without cisplatin; assay type: in vivo; settings: compared to the control groups; lung tumors greater than 2,000 mm^3
Text: In an additional experiment, tumor cells were implanted into mice; lung tumors of volumes greater than 2,000 mm^3 were developed. The mice were then separated into four groups, including a control group and three treatment groups: compound I7 alone; compound I7 with cisplatin (a cytotoxic drug); or cisplatin alone. Compared to the control groups, the mice treated with combination compound I7/cisplatin therapy experienced more than an 80 percent reduction in tumor size. In comparison, the group receiving cisplatin alone experienced 50 percent reductions in tumor size and the compound I7 group experienced 20-30 percent reductions. These studies indicate that compound I7 has prominent anti-tumor activity.

M21 human melanoma cells = test: M21 human melanoma model; assay type: in vivo, SCID mice
Protocol: In the M21 model, M21 human melanoma cells implanted subcutaneously into SCID mice developed tumors which grew to approximately 400 mm^3 within 30 days. […] Cisplatin was administered once by ip injection (10 mg/kg) on day 14. […] The results of this dose sequencing experiment establish the efficacy of compound I7 in combination therapy with cisplatin when administered before, concurrent with, or after cisplatin dosing.

[1] = test system: Rice 500 rat Leydig testicular tumor; test: Rice 500 rat Leydig testicular tumor model; assay type: in vivo, SCID mice; settings: for survival compared to vehicle treated controls: single agents, p<0.05
Protocol: The Rice 500 rat Leydig testicular tumor grows very quickly when implanted into the flank of SCID mice. […] Tumor growth was reduced by about 50% at the […] dose in this aggressive model. […] Similar to the results seen in the M21 tumor model, compound I7 increased the effects of cisplatin in the Leydig tumor model. […] In a similar experiment, the effects of compound I7, cisplatin and the combination were evaluated for potentiation of overall survival in the Leydig tumor mice. Survival was increased by either compound I7 or cisplatin alone when compared to vehicle treated controls (p<0.05). More importantly, the combination of the two agents almost doubled overall survival (from 17 to 29 days) (p<0.0l combination vs. cisplatin, p<0.001 combination vs. control). Thus, the ability of compound I7 to work alone or in combination therapy to prevent tumor growth clearly correlates with enhanced survival.

human U251 glioblastoma = test: U251 glioblastoma model; assay type: in vivo, SCID mice; settings: for tumor growth (mean tumor volume with time): compound I7 10 mg/kg BID PO day 14-44, BCNU 12 mg/kg once a day on days 14, 18 and 22
Protocol: compound I7 was evaluated in the human U251 glioblastoma model. The tumors were implanted onto the flanks of SCID mice and the mean tumor volume with time was calculated. […] These clinically relevant measurements of antitumor efficacy establish the antitumor efficacy of compound I7, especially when combined with standard of care chemotherapeutic agents.

[2] = test system: A2780 human ovarian carcinoma; test: A2780 mouse model; assay type: in vivo, SCID mice; settings: compound I7 10 mg/kg BID PO; cisplatin 10 mg/kg ip once on day 20
Text: compound I7 prevents the growth of human ovarian carcinoma in SCID mice. […] Survival studies are now underway to characterize the survival benefit of combination therapy in this model.

[3] = test system: angiogenesis induced by bFGF or VEGF; test: Corneal micropocket assay; assay type: in vivo, female C57BL6 mice; settings: BID
Text: In this model, an intrastromal pocket is surgically created in the normally avascular cornea of female C57BL6 mice 1 mm distance from the corneal-scleral junction. A slow release hydron polymer pellet containing an angiogenic growth factor (bFGF or VEGF) is inserted into the corneal pocket. The pocket is self sealing and antibiotic ointment is placed in the eye.

[4] = test system: 435/GFP HAL-1 (MDA-MB-435 breast carcinoma) cells; test: Metastasis model, 435/GFP HAL-1 orthotopic implantation; assay type: in vivo, SCID mice; settings: for reduction in lung metastatic burden: eight weeks
Text: Accurate quantitation of early-stage metastasis in animal models is typically hampered by the lack of sensitive and convenient assays to detect low numbers of tumor cells in a background of normal tissue. Quantitation of late-stage metastasis by counting of visible foci or comparison of organ weights requires substantial tumor burden which can take 3-4 months to develop in conventional models of breast cancer, and generally cannot detect subtle differences. […] The GFP-transfected cells are easily detected by flow cytometry, and fixation of the cells or the addition of antibodies or exogenous substrates is not required. A highly aggressive clone was isolated from the lung of a SCID mouse implanted in the mammary fat pad with several GFP-expressing clones. […] Eight weeks later, lungs were removed and weighed.

[5] = test system: Cancer cells implanted subcutaneously; settings: large-volume tumors (>1,500 mm^3); dose dependent; cited from earlier work
[6] = test system: Lewis Lung carcinoma (LLC); test: Lewis Lung carcinoma (LLC) model; settings: for growth of the LLC tumor (primary tumor mass): compound I7 1 and 10 mg/kg BID PO from day 1, cisplatin single ip dose 10 mg/kg on day 5; for median survival time: compound I7 at 10 mg/kg
Protocol: Tumor cells for implantation were taken from cells either grown in tissue culture (Leydig, M21) or serially passaged as tumors in mice and prepared as tumor brei (LLC). […] Tumor volumes were measured at intervals over the course of the experiments. Tumors were measured with a vernier caliper and volumes were determined using the formula for the volume of a cylinder: tumor volume=width^2×length×0.52. […] On the final day of the experiment, tumors were dissected free and weighed. The data are expressed as the mean +/− SEM. Student's and Mann-Whitney tests were used to assess differences between means or medians using the InStat software package.

[7] = 15 mg/kg/day, biliary cirrhosis trials; cited from earlier work

Structure (SMILES): O=C(O)C[C@@H](NC(=O)CNC(=O)c1cc(O)cc(NC2=NCC(O)CN2)c1)c1cc(Cl)cc(Br)c1O (stereo partly drawn) [compound I7, (3R)-N-[3-hydroxy-5-[(1,4,5,6-tetrahydro-5-hydroxy-2-pyrimidinyl)amino]benzoyl]glycyl-3-(3-bromo-5-chloro-2-hydroxyphenyl)-b-alanine]
- reduction in tumor size (lung tumors): 20-30%
- time to tumor volume >200 mm^3 (M21 human melanoma cells; 10 mg/kg): 27 days
- growth of M21 tumors (M21 human melanoma cells; oral BID, at time of tumor implantation or beginning up to 21 days after): dose-dependently retarded the growth
- tumor growth reduced ([1]; 2 mg/ml dose in drinking water): about 50%
- inhibition of tumor growth ([1]; compound I7 10 or 100 mg/kg BID PO from day 5, monotherapy or with cisplatin 10 mg/kg ip once day 5, p<0.01 vs control): Dose-related inhibition of tumor growth
- tumor growth ([1]; in the drinking water at 0.02 to 2 mg/ml): inhibited tumor growth dose-dependently
- survival compared to vehicle treated controls [1]: increased
- tumor growth (mean tumor volume with time) (human U251 glioblastoma): little inhibition of tumor growth
- tumor growth [2]: equally effective as cisplatin
- angiogenesis induced by either bFGF or VEGF [3]: inhibited angiogenesis
- inhibition of the angiogenic response ([3]; maximal inhibitory activity at 10 mg/kg BID orally): up to 42%
- reduction in lung metastatic burden ([4]; 10 mg/kg BID orally): 55%
- reduction in lung metastatic burden ([4]; 30 mg/kg BID orally): 69%
- spontaneous metastasis of 435 breast carcinoma cells to the lungs ([4]; 1, 10 and 30 mg/kg BID orally, visual counting or flow cytometry): dose-dependently reduced
- growth of the primary tumor mass ([4]; mouse, in vivo): did not delay the growth
- histological examination of lung sections ([4]; mouse, in vivo): dramatic reduction in the number of large macroscopic metastases and an increase in the presence of microscopic foci of metastases
- reduced tumor growth [5]: ≤ 85%
- growth of the LLC tumor (primary tumor mass) [6]: did not affect the growth
- median survival time ([6]; cisplatin 10 mg/kg ip day 5): 33 days

Structure (SMILES): C[C@H](CCC(=O)O)[C@H]1CC[C@H]2[C@@H]3[C@@H](O)C[C@@H]4C[C@H](O)CC[C@]4(C)[C@H]3CC[C@]12C [URSO, Ursodeoxycholate]
- tolerability [7]: extremely well tolerated and without toxicity

Structure (SMILES): N.N.[Cl][Pt][Cl] [cisplatin, reference compound]
- reduction in tumor size (lung tumors): 50%
- survival compared to vehicle treated controls [1]: increased
- tumor growth [2]: decreasing tumor growth
- time to develop a tumor >500 mm^3 ([6]; cisplatin 10 mg/kg ip day 5, compound I7 10 mg/kg): 22.4 days
- growth of the LLC tumor (primary tumor mass) [6]: significantly retarded the growth
- median survival time ([6]; cisplatin 10 mg/kg ip day 5): 33 days

Structure (SMILES): O=NN(CCCl)C(=O)NCCCl [BCNU, carmustine]
- tumor growth (mean tumor volume with time) (human U251 glioblastoma): regression of the tumors to the limit of detectability, but the tumors grew back
- duration of the response (human U251 glioblastoma; p<0.01): 5 days
